Here are results for 11 compounds from US5391540A, “Substituted pyridine compounds” (Rohm and Haas Company, priority 1993, dated 1995).

Structures are written as SMILES.

What all share (experiment): Pre-emergent herbicidal activity (Table A)
Assay type in all cases: in vivo

The subject of one test is Barnyardgrass. The note with it: Echinochloa crus-galli, pre-emergence, Bygr, 11.2 kg/ha, 10-14 days, read-out: herbicidal rating (% inhibition). Summed up: (§1)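 Seeds or perennial propagules set on compacted topsoil, then covered with soil mixed with a known amount of test compound applied in acetone or water carrier. Ratings assigned on a scale based on percent inhibition of each species.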

A further test concerns Canada thistle. The note with it: Cirsium arvense, pre-emergence, Cath, 11.2 kg/ha, 10-14 days, read-out: herbicidal rating (% inhibition). Summed up: as §1
The test system of the next test is Cocklebur. The conditions noted are these: Xanthium strumarium, pre-emergence, Cobu, 11.2 kg/ha, 10-14 days, read-out: herbicidal rating (% inhibition). Summed up: as §1
In the next test the test system is Common Lambsquarters. The conditions noted are these: Chenopodium album, pre-emergence, Colq, 11.2 kg/ha, 10-14 days, read-out: herbicidal rating (% inhibition). Summed up: as §1
The subject of the next test is Downy Brome. The conditions noted are these: Bromus tectorum, pre-emergence, Dobr, 11.2 kg/ha, 10-14 days, read-out: herbicidal rating (% inhibition). Summed up:
as §1

Another test concerns Morningglory. The conditions noted are these: Ipomoea, pre-emergence, Mogl, 11.2 kg/ha, 10-14 days, read-out: herbicidal rating (% inhibition). Summed up:
as §1

The subject of a further test is Pennsylvania Smartweed. The note with it: pre-emergence, Pesw, 11.2 kg/ha, 10-14 days, read-out: herbicidal rating (% inhibition). Summed up:
as §1

The next test relates to Quackgrass. The note with it: pre-emergence, Rhqg, 11.2 kg/ha, 10-14 days, read-out: herbicidal rating (% inhibition). Summed up: as §1
A further test deals with Rhizome Johnsongrass. The note with it: Sorghum halepense, pre-emergence, Rhjg, 11.2 kg/ha, 10-14 days, read-out: herbicidal rating (% inhibition). Summed up: as §1
A further test relates to Velvetleaf. The conditions noted are these: Abutilon theophrasti, pre-emergence, Vele, 11.2 kg/ha, 10-14 days, read-out: herbicidal rating (% inhibition). Summed up:
as §1

Another test deals with Yellow Nutsedge. The note with it: Cyperus, pre-emergence, Yens, 11.2 kg/ha, 10-14 days, read-out: herbicidal rating (% inhibition). Summed up: as §1

Broadly, the inhibition is the percentage by which the read-out fell short of the control. In the case of `COC(=O)c1c(C(F)(F)F)nc(OC)c(C2=NCCO2)c1CC(C)C` [Compound 27, 3-pyridinecarboxylic acid, 5-(4,5-dihydro-2-oxazolyl)-6-methoxy-4-(2-methylpropyl)-2-(trifluoromethyl)-, methyl ester], the inhibition at 11200 g/ha with Barnyardgrass was 75 to 100%; with Canada thistle it was 75 to 100%; with Cocklebur, 25 to 49%; with Common Lambsquarters it was 75 to 100%; in the test on Downy Brome it was 75 to 100%; with Morningglory it was 75 to 100%. Besides, the inhibition at 11200 g/ha lay within 75 to 100% in the test on Pennsylvania Smartweed; 75 to 100% with Quackgrass; 0 to 24% in the test on Rhizome Johnsongrass; 75 to 100% with Velvetleaf; 50 to 74% in the test with Yellow Nutsedge.

In the case of `COC(=O)c1c(C(F)(F)F)nc(OC)c(C(=O)n2ccnc2)c1CC(C)C` [Compound 28, 3-pyridinecarboxylic acid, 6-methoxy-4-(2-methylpropyl)-5-(1H-imidazo1-1-ylcarbonyl)-2-(trifluoromethyl)-, methyl ester], the inhibition at 11200 g/ha in the test on Barnyardgrass was 75 to 100%; with Canada thistle, 0 to 24%; in the test with Cocklebur it was 75 to 100%; with Common Lambsquarters it was 75 to 100%; in the test with Downy Brome, 75 to 100%; in the test on Morningglory, 50 to 74%. The inhibition at 11200 g/ha was in the range of 50 to 74% with Pennsylvania Smartweed; 0 to 24% with Quackgrass; 0 to 24% with Rhizome Johnsongrass; 25 to 49% in the test with Velvetleaf; 0 to 24% in the test with Yellow Nutsedge.

As to `CCOC(=O)c1c(OC)nc(C(F)(F)Cl)c(C(=O)OC)c1CC(C)C` [Compound 29, 3,5-pyridinedicarboxylic acid, 2-(chlorodifluoromethyl)-6-methoxy-4-(2-methylpropyl)-, 5-ethyl 3-methyl ester], the inhibition at 11200 g/ha lay in the range of 75 to 100% in the test on Barnyardgrass; 0 to 24% in the test with Canada thistle; 0 to 24% in the test with Cocklebur; 75 to 100% in the test with Common Lambsquarters; 75 to 100% in the test on Downy Brome; 75 to 100% in the test with Morningglory. Also, the inhibition at 11200 g/ha in the test with Pennsylvania Smartweed was in the range of 75 to 100%; in the test on Quackgrass, 75 to 100%; in the test with Rhizome Johnsongrass, 25 to 49%; in the test on Velvetleaf, 75 to 100%; in the test with Yellow Nutsedge, 25 to 49%.

Take `COC(=O)c1c(OC)nc(C(F)F)c(C(=O)OC)c1CC(C)C` [Compound 31, 3,5-pyridinedicarboxylic acid, 2-(difluoromethyl)-6-methoxy-4-(2-methylpropyl)-, dimethyl ester]: the inhibition at 11200 g/ha is 75 to 100% in the test with Barnyardgrass; 0 to 24% with Canada thistle; 0 to 24% in the test on Cocklebur; 75 to 100% in the test on Common Lambsquarters; 75 to 100% with Downy Brome; 75 to 100% with Morningglory. Besides, the inhibition at 11200 g/ha in the test with Pennsylvania Smartweed is 75 to 100%; with Quackgrass it was 75 to 100%; with Rhizome Johnsongrass it was 75 to 100%; in the test on Velvetleaf, 75 to 100%; with Yellow Nutsedge, 50 to 74%.

On to `COC(=O)c1c(C(F)(F)F)nc(OC)c(C(=O)SC)c1CC(C)C` [Compound 33, 3-pyridinecarboxylic acid, 6-methoxy-4-(2-methylpropyl)-5-[(methylthio)carbonyl]-2-(trifluoromethyl)-, methyl ester], for which the inhibition at 11200 g/ha in the test with Barnyardgrass is 75 to 100%; with Canada thistle, 50 to 74%; in the test with Cocklebur, 25 to 49%; in the test on Common Lambsquarters it was 75 to 100%; in the test on Downy Brome it was 75 to 100%; in the test on Morningglory, 75 to 100%. Besides, the inhibition at 11200 g/ha lay within 75 to 100% in the test on Pennsylvania Smartweed; 75 to 100% in the test on Quackgrass; 75 to 100% in the test with Rhizome Johnsongrass; 75 to 100% in the test on Velvetleaf; 50 to 74% with Yellow Nutsedge.

For the compound `COC(=O)c1c(OC)nc(C(F)(F)F)c(C(=O)SC)c1CC(C)C` [Compound 34, 3-pyridinecarboxylic acid, 2-methoxy-4-(2-methylpropyl)-5-[(methylthio)carbonyl]-6-(trifluoromethyl)-, methyl ester], the inhibition at 11200 g/ha in the test on Barnyardgrass, in the test with Canada thistle, in the test on Cocklebur, in the test with Common Lambsquarters, with Downy Brome and in the test with Morningglory was 75 to 100% each time. Moreover, the inhibition at 11200 g/ha in the test with Pennsylvania Smartweed fell in the range of 75 to 100%; in the test on Quackgrass, 75 to 100%; with Rhizome Johnsongrass, 75 to 100%; in the test with Velvetleaf it was 50 to 74%; in the test with Yellow Nutsedge, 75 to 100%.

In the case of `CCOC(=O)C1=C(C(F)(F)F)NC(=O)C(C(N)=O)C1CC(C)C` (stereo not shown) [Compound 35, 3-pyridinecarboxylic acid, 5-(aminocarbonyl)-1,4,5,6-tetrahydro-4-(2-methylpropyl)-6-oxo-2-(trifluoromethyl)-, ethyl ester], the inhibition at 11200 g/ha in the test with Barnyardgrass, with Canada thistle, in the test with Cocklebur, with Common Lambsquarters, in the test with Downy Brome and with Morningglory was 0 to 24% in each case. In addition, the inhibition at 11200 g/ha in the test on Pennsylvania Smartweed, in the test on Quackgrass, in the test on Rhizome Johnsongrass, in the test on Velvetleaf and with Yellow Nutsedge was 0 to 24% in each case.

Consider `COC(=O)c1c(OC)nc(C(F)(F)F)c(N)c1CC(C)C` [Compound 36, 3-pyridinecarboxylic acid, 5-amino-2-methoxy-4-(2-methylpropyl)-6-(trifluoromethyl)-, methyl ester], for which the inhibition at 11200 g/ha with Barnyardgrass lay within 75 to 100%; in the test on Canada thistle, 25 to 49%; in the test on Cocklebur it was 0 to 24%; in the test on Common Lambsquarters, 75 to 100%; in the test on Downy Brome, 75 to 100%; in the test with Morningglory it was 50 to 74%. Further, the inhibition at 11200 g/ha in the test on Pennsylvania Smartweed is 75 to 100%; with Quackgrass it was 75 to 100%; in the test with Rhizome Johnsongrass, 75 to 100%; with Velvetleaf it was 50 to 74%; in the test with Yellow Nutsedge, 0 to 24%.

`CNC(=O)c1c(C(F)(F)F)nc(OC)c(C(=O)OC)c1CC(C)C` [Compound 37, 3-pyridinecarboxylic acid, 2-methoxy-5-[(methylamino)carbonyl]-4-(2-methylpropyl)-6-(trifluoromethyl)-, methyl ester]: the inhibition at 11200 g/ha lay in the range of 0 to 24% in the test with Barnyardgrass; 0 to 24% in the test on Canada thistle; 0 to 24% in the test on Cocklebur; 75 to 100% in the test on Common Lambsquarters; 0 to 24% in the test with Downy Brome; 0 to 24% in the test with Morningglory. In addition, the inhibition at 11200 g/ha with Pennsylvania Smartweed, with Quackgrass, in the test with Rhizome Johnsongrass, in the test on Velvetleaf and in the test on Yellow Nutsedge was 0 to 24% throughout.

With `COC(=O)c1c(OC)nc(C(F)(F)F)c(C(=O)NCCO)c1CC(C)C` [Compound 38, 3-pyridinecarboxylic acid, 5-[[(2-hydroxyethyl)amino]carbonyl]-2-methoxy-4-(2-methylpropyl)-6-(trifluoromethyl)-, methyl ester], the inhibition at 11200 g/ha in the test with Barnyardgrass, with Canada thistle, with Cocklebur, with Common Lambsquarters, in the test with Downy Brome and in the test on Morningglory was 0 to 24% throughout. Further, the inhibition at 11200 g/ha in the test with Pennsylvania Smartweed, in the test on Quackgrass, in the test on Rhizome Johnsongrass, with Velvetleaf and with Yellow Nutsedge was 0 to 24% each time.

In the case of `CCOC(=O)c1c(OCC)nc(C(F)(F)F)c(C(=O)OCC)c1CC(C)C` [Compound 39, 3,5-pyridinedicarboxylic acid, 2-ethoxy-4-(2-methylpropyl)-6-(trifluoromethyl)-, diethyl ester], the inhibition at 11200 g/ha is 75 to 100% in the test with Barnyardgrass; 0 to 24% with Canada thistle; 0 to 24% in the test with Cocklebur; 75 to 100% with Common Lambsquarters; 75 to 100% with Downy Brome; 25 to 49% with Morningglory. Besides, the inhibition at 11200 g/ha fell in the range of 75 to 100% in the test with Pennsylvania Smartweed; 0 to 24% with Quackgrass; 0 to 24% in the test with Rhizome Johnsongrass; 50 to 74% in the test on Velvetleaf; 0 to 24% in the test with Yellow Nutsedge.
